For 23 molecules, IC50 results are on record in patent US20230303570A1, “KINASE INHIBITORS AND USES THEREOF” (ABM Therapeutics Corporation, priority 2020, published 2023).

The target of the test is HPK1 (MAP4K1) (Homo sapiens, UniProt Q92918). The experiment in a line: HPK1 (MAP4K1) kinase Lantha screen assay. Type of test: biochemical. How it is done: The effect of the compounds on the activity of HPK1 (MAP4K1) kinase were assessed by Lantha screen assay. • 1. 1×kinase buffer was prepared (50 mM HEPES, pH 7.5, 10 mM MgCl2, 4 mM DT • 2. Compound and assay plates preparation: • 2-1) The compound was diluted to 100× of the final desired highest inhibitor concentration in reaction by 100% DMSO. For example, if a compound was tested at […], then a solution at 500 µM in DMSO was prepared in this step. • 2-2) For each tested compound, the compound was transferred in tubes to one well on a 96-well storage plate and serially diluted by transferring […] of 100% DMSO in the next well and so forth for a total of 6 concentrations. • 2-3) 100 μl of 100% DMSO were added to two empty wells to serve as no compound control and no enzyme control in the same 96-well plate. The resulting plate was labeled as the source plate. • 2-4) 40 μl of compound from source plate were transferred to a new 384-well Echo plate as the intermediate plate. 100 nl of each well from the 384-well Echo plate were transferred to a 384-well assay plate in duplicates. For example, A1 of the 384-well Echo plate was transferred to A1 and A2 of the 384-well plate. A2 of the 384-well Echo plate was transferred to A3 and A4 of the 384-well plate, and so on; • 3. Kinase reaction: a solution of MAP4K1 in 1× kinase buffer at 2-fold the final concentration of each reagent in the assay was prepared. 5 μl of kinase solution was added to each well of the assay plate, except for control wells without enzyme (add 5 μl of 1× kinase buffer instead). The plate was then shaken, then incubated at room temperature for 10 min. A substrate solution of Fluorescein-PKC and ATP in 1× kinase reaction buffer at 2-fold of the final concentration of each reagent desired in the assay was prepared. 5 μl of substrate solution was added to each well of the assay plate to start reaction. The plate was shaken, then covered, and incubated at room temperature for 90 minutes.
Chain of HPK1 (MAP4K1) (Q92918 whole entry, species assumed): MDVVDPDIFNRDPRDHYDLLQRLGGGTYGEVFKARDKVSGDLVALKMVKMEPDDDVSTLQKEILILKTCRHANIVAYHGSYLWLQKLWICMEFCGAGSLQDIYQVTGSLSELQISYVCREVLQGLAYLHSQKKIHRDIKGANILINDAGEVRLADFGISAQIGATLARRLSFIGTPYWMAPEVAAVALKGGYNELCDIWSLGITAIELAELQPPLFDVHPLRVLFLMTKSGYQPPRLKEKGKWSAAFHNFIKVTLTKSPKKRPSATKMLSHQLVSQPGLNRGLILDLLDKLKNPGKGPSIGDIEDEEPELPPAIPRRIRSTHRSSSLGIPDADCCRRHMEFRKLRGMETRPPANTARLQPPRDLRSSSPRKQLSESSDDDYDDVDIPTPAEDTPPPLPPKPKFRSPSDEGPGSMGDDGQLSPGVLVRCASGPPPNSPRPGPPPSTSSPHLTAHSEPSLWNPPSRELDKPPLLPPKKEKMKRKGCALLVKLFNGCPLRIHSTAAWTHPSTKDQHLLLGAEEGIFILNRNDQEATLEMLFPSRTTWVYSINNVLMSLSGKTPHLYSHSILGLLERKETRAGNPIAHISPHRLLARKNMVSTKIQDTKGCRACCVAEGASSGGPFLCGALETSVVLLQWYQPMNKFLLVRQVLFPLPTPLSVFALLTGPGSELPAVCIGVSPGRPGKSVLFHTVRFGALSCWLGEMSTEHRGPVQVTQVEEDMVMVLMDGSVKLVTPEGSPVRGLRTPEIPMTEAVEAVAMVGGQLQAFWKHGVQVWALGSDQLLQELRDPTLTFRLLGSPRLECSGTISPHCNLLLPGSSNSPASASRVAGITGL
Kinase detection: detection solution of 2-fold of final concentration in Antibody Dilution Buffer was prepared. 10 μl of detection solution was added to each well of the assay plate to stop the reaction. The mixtures were mixed briefly with Centrifuge and incubated at room temperature 60 minutes before reading on a plate reader for fluorescence. Data was collected on Envision with excitation at 340 nm and emission at 520 nm and 495 nm.
`CNc1ncc2c(n1)N1CCN=C1C(c1cc(NC(=O)c3cncc(C(F)(F)F)n3)ccc1C)=C2` [Compound 146, N-(4-methyl-3-(2-(methylamino)-8,9-dihydroimidazo[1′,2′:1,6]pyrido[2,3-d]pyrimidin-6-yl)phenyl)-6-(trifluoromethyl)pyrazine-2-carboxamide]: the IC50 is above 10 µM.

As for `CNc1ncc2c(n1)N1CCN=C1C(c1cc(NC(=O)c3ccnc(C(F)(F)F)n3)ccc1C)=C2` [Compound 147, N-(4-methyl-3-(2-(methylamino)-8,9-dihydroimidazo[1′,2′:1,6]pyrido[2,3-d]pyrimidin-6-yl)phenyl)-2-(trifluoromethyl)pyrimidine-4-carboxamide], the IC50 was above 10 µM.

As to `CNc1ncc2c(n1)N1CCN=C1C(c1cc(NC(=O)c3nccc(C(F)(F)F)n3)ccc1C)=C2` [Compound 148, N-(4-methyl-3-(2-(methylamino)-8,9-dihydroimidazo[1′,2′:1,6]pyrido[2,3-d]pyrimidin-6-yl)phenyl)-4-(trifluoromethyl)pyrimidine-2-carboxamide], the IC50 fell in the range of 0.1 to 10 µM.

Turning to `CNc1ncc2c(n1)N1CCN=C1C(c1cc(NC(=O)c3cnnc(C(F)(F)F)c3)ccc1C)=C2` [Compound 150, N-(4-methyl-3-(2-(methylamino)-8,9-dihydroimidazo[1′,2′:1,6]pyrido[2,3-d]pyrimidin-6-yl)phenyl)-6-(trifluoromethyl)pyridazine-4-carboxamide], the IC50 is above 10 µM.

In turn, `CNc1ncc2c(n1)N1CCN=C1C(c1cc(NC(=O)c3cc(C(F)(F)F)ncn3)ccc1C)=C2` [Compound 151, N-(4-methyl-3-(2-(methylamino)-8,9-dihydroimidazo[1′,2′:1,6]pyrido[2,3-d]pyrimidin-6-yl)phenyl)-6-(trifluoromethyl)pyrimidine-4-carboxamide] gave a half-maximal inhibitory concentration (IC50) of 0.1 to 10 µM.

`CNc1ncc2c(n1)N1CCN=C1C(c1cc(NC(=O)c3nccc(C(F)(F)F)c3Cl)ccc1C)=C2` [Compound 152, 3-chloro-N-(4-methyl-3-(2-(methylamino)-8,9-dihydroimidazo[1′,2′:1,6]pyrido[2,3-d]pyrimidin-6-yl)phenyl)-4-(trifluoromethyl)picolinamide] displayed an IC50 of 0.1 to 10 µM.

Molecule `CNc1ncc2c(n1)N1CCN=C1C(c1cc(NC(=O)c3cc(C(F)(F)F)c[nH]c3=O)ccc1C)=C2` [Compound 153, N-(4-methyl-3-(2-(methylamino)-8,9-dihydroimidazo[1′,2′:1,6]pyrido[2,3-d]pyrimidin-6-yl)phenyl)-2-oxo-5-(trifluoromethyl)-1,2-dihydropyridine-3-carboxamide] gave an IC50 of 0.1 to 10 µM.

In turn, `CNc1ncc2c(n1)N1CCN=C1C(c1cc(NC(=O)C3CC(C(F)(F)F)CCN3)ccc1C)=C2` (centres unmarked) [Compound 154, N-(4-methyl-3-(2-(methylamino)-8,9-dihydroimidazo[1′,2′:1,6]pyrido[2,3-d]pyrimidin-6-yl)phenyl)-4-(trifluoromethyl)piperidine-2-carboxamide] registered a 50% inhibitory concentration (IC50) above 10 µM.

Take `CNc1ncc2c(n1)N1CCN=C1C(c1cc(NC(=O)C3CCNC(C(F)(F)F)C3)ccc1C)=C2` (centres unmarked) [Compound 155, N-(4-methyl-3-(2-(methylamino)-8,9-dihydroimidazo[1′,2′:1,6]pyrido[2,3-d]pyrimidin-6-yl)phenyl)-2-(trifluoromethyl)piperidine-4-carboxamide]: the IC50 is above 10 µM.

`CNc1ncc2c(n1)N1CCN=C1C(c1cc(NC(=O)c3cc(C(F)(F)F)cc(-n4cnc(C)c4)n3)ccc1C)=C2` [Compound 157, 6-(4-methyl-1H-imidazol-1-yl)-N-(4-methyl-3-(2-(methylamino)-8,9-dihydroimidazo[1′,2′:1,6]pyrido[2,3-d]pyrimidin-6-yl)phenyl)-4-(trifluoromethyl)picolinamide] registered an IC50 of 0.1 to 10 µM.

As to `CNc1ncc2c(n1)N1CCN=C1C(c1cc(NC(=O)c3cc(C#N)ccn3)ccc1C)=C2` [Compound 159, 4-cyano-N-(4-methyl-3-(2-(methylamino)-8,9-dihydroimidazo[1′,2′:1,6]pyrido[2,3-d]pyrimidin-6-yl)phenyl)picolinamide], the IC50 was 0.1 to 10 µM.

Molecule `CNc1ncc2c(n1)N1CCN=C1C(c1cc(NC(=O)c3cncc(Cl)c3)ccc1C)=C2` [Compound 160, 5-chloro-N-(4-methyl-3-(2-(methylamino)-8,9-dihydroimidazo[1′,2′:1,6]pyrido[2,3-d]pyrimidin-6-yl)phenyl)nicotinamide] registered an IC50 above 10 µM.

The molecule `CNc1ncc2c(n1)N1CCN=C1C(c1cc(NC(=O)c3cccc(C(C)(C)C#N)c3)ccc1C)=C2` [Compound 161, 3-(2-cyanopropan-2-yl)-N-(4-methyl-3-(2-(methylamino)-8,9-dihydroimidazo[1′,2′:1,6]pyrido[2,3-d]pyrimidin-6-yl)phenyl)benzamide] showed an IC50 below 0.1 µM.

In turn, `CNc1ncc2c(n1)N1CCN=C1C(c1cc(NC(=O)c3ccnc(C(C)(C)C#N)c3)ccc1C)=C2` [Compound 162, 2-(2-cyanopropan-2-yl)-N-(4-methyl-3-(2-(methylamino)-8,9-dihydroimidazo[1′,2′:1,6]pyrido[2,3-d]pyrimidin-6-yl)phenyl)isonicotinamide] came in with an IC50 below 0.1 µM.

Turning to `CNc1ncc2c(n1)N1CCN=C1C(c1cc(NC(=O)c3cc(C(C)(C)C#N)ccn3)c(F)cc1C)=C2` [Compound 165, 4-(2-cyanopropan-2-yl)-N-(2-fluoro-4-methyl-5-(2-(methylamino)-8,9-dihydroimidazo[1′,2′:1,6]pyrido[2,3-d]pyrimidin-6-yl)phenyl)picolinamide], the IC50 is below 0.1 µM.

On to `CNc1ncc2c(n1)N1CCN=C1C(c1cc(NC(=O)c3cccc(C(C)(C)O)c3)ccc1C)=C2` [Compound 170, 3-(2-hydroxypropan-2-yl)-N-(4-methyl-3-(2-(methylamino)-8,9-dihydroimidazo[1′,2′:1,6]pyrido[2,3-d]pyrimidin-6-yl)phenyl)benzamide], for which the IC50 was below 0.1 µM.

`Cc1cc(F)c(NC(=O)c2cccc(C(F)(F)F)n2)cc1C1=Cc2cnc(NC3COC3)nc2N2CCN=C12` [Compound 179, N-(2-fluoro-4-methyl-5-(2-(oxetan-3-ylamino)-8,9-dihydroimidazo[1′,2′:1,6]pyrido[2,3-d]pyrimidin-6-yl)phenyl)-6-(trifluoromethyl)picolinamide] yielded a 50% inhibitory concentration (IC50) of 0.1 to 10 µM.

For `Cc1cc(F)c(NC(=O)c2cccc(C(C)(C)C#N)c2)cc1C1=Cc2cnc(NC3COC3)nc2N2CCN=C12` [Compound 180, 3-(2-cyanopropan-2-yl)-N-(2-fluoro-4-methyl-5-(2-(oxetan-3-ylamino)-8,9-dihydroimidazo[1′,2′:1,6]pyrido[2,3-d]pyrimidin-6-yl)phenyl)benzamide], the IC50 was below 0.1 µM.

For the molecule `Cc1cc(F)c(NC(=O)c2cccc(C(C)(C)C#N)n2)cc1C1=Cc2cnc(NC3COC3)nc2N2CCN=C12` [Compound 182, 6-(2-cyanopropan-2-yl)-N-(2-fluoro-4-methyl-5-(2-(oxetan-3-ylamino)-8,9-dihydroimidazo[1′,2′:1,6]pyrido[2,3-d]pyrimidin-6-yl)phenyl)picolinamide], the IC50 was 0.1 to 10 µM.

Molecule `CNc1ncc2c(n1)N1CCN=C1C(c1cc(NC(=O)c3cccc(C(F)(F)F)c3)ncc1C)=C2` [Compound 190, N-(5-methyl-4-(2-(methylamino)-8,9-dihydroimidazo[1′,2′:1,6]pyrido[2,3-d]pyrimidin-6-yl)pyridin-2-yl)-3-(trifluoromethyl)benzamide] had a concentration for half-maximal inhibition (IC50) of 0.1 to 10 µM.

`CNc1ncc2c(n1)N1CCN=C1C(c1cc(NC(=O)c3cc(C(F)(F)F)ccn3)cnc1C)=C2` [Compound 191, N-(6-methyl-5-(2-(methylamino)-8,9-dihydroimidazo[1′,2′:1,6]pyrido[2,3-d]pyrimidin-6-yl)pyridin-3-yl)-4-(trifluoromethyl)picolinamide]: the IC50 was 0.1 to 10 µM.

As for `CNc1ncc2c(n1)N1CCN=C1C(c1nc(NC(=O)c3cc(C(F)(F)F)ccn3)ccc1C)=C2` [Compound 192, N-(5-methyl-6-(2-(methylamino)-8,9-dihydroimidazo[1′,2′:1,6]pyrido[2,3-d]pyrimidin-6-yl)pyridin-2-yl)-4-(trifluoromethyl)picolinamide], the IC50 is above 10 µM.

On to `CNc1ncc2c(n1)N1CCN=C1C(c1cc(NC(=O)c3cn(C(C)C)c(=O)n(-c4ccc(F)cc4)c3=O)c(F)cc1C)=C2` [Compound 194, N-(2-fluoro-4-methyl-5-(2-(methylamino)-8,9-dihydroimidazo[1′,2′:1,6]pyrido[2,3-d]pyrimidin-6-yl)phenyl)-3-(4-fluorophenyl)-1-isopropyl-2,4-dioxo-1,2,3,4-tetrahydropyrimidine-5-carboxamide], for which the IC50 lay in the range of 0.1 to 10 µM.
